Data: publication PMC11468294, “Peptide Amphiphiles as Biodegradable Adjuvants for Efficient Retroviral Gene Delivery” (Advanced Healthcare Materials, 2023)
Where a SMILES comes first, the peptide text is derived from it. The star is where a group is joined. Palmitoyl = CCCCCCCCCCCCCCCC(=O)*

Legend:
ThT fluorescence = format: physicochemical; set-up: key: + = ThT active; − = no ThT fluorescence observed; conditions: 1 mg mL-1 in PBS; ThT-active if fluorescence at least twice the control (PBS with 10% DMSO)
Experimental: ThT‐fluorescence: 20 µL 50 µM of ThT solution in PBS was pipetted in a black 384 well‐plate and 4 µL of the nanofibril solution 1 mg mL^−1 were added. For reference PBS with 10% DMSO (4 µL) instead of fibril solution was added. Subsequently, fluorescence emission was recorded λem = 488 nm upon excitation at λex = 440 nm with 10 nm bandwidth and multiple reads per well (3 × 3) using a Spark 20 M microplate reader (Tecan Group, Ltd). Data processing was performed with Origin software. A peptide fibril was considered as ThT‐active if the fluorescence intensity was at least twice as strong compared to the control (PBS containing 10% DMSO).

[1] = tested on: GALV-RV transduction of CD4+ T cells; test: γ-Retroviral transduction assay of CD4+ T cells; format: cell-based, Human; conditions: GALV-RV, 0.26, 1.3, 6.5 µM; GFP+ cells after 3 days; performed once
Experimental: γ‐Retroviral transduction Assay CD4+ T cells: Human CD4+ T cells were isolated from a Buffy coat using RosetteSep Human CD4+ Enrichment Cocktail ([…] Technologies) according to manufacturer's protocol. Isolated T cells were activated using Dynabeads Human T‐Activator CD3/CD28 (GibcoTM) according to manufacturer's protocol in presence of 10 ng mL^−1 IL‐2 (Miltenyi Biotec) for three days. After 3 days the magnetic Dynabeads were removed using a magnet and T cells were cultured in presence of 9 ng mL^−1 IL‐7 (Miltenyi Biotec) and 10 ng mL^−1 IL‐15 (Miltenyi Biotec). After 1 day 5 × 10^5 T cells were transduced with GALV‐γ‐RV in absence and presence of PA1, PA2, EF‐C (0.26, 1.3 and 6.5 µM) and Vectofusin−1 (10 µg mL^−1; Miltenyi Biotec), or RetroNectin (20 µg mL^−1; Takara Bio). The concentration of the transduction enhancers corresponds to the concentration on cells and in the case for RetroNectin it corresponds to the concentration that was used to precoat the 24‐well plate. The 24‐well plate was coated with RetroNectin and incubated overnight at 4°C. Wells were blocked with PBS containing 2% BSA for 30 min and washed twice with PBS. […] After 3 days GFP+ T cells were analyzed by flow cytometry. Viability was determined using LIVE/DEAD Fixable Aqua Dead Cell Stain Kit (ThermoFisher Scientific) according to manufacturer's protocol. […]

CD4+ T cells = test: Confocal microscopy degradation study with CD4+ T cells; format: in vitro ADME, Human; conditions: 1 µg peptide (5 µg mL-1) added to 250,000 cells, 37°C, 30 min vs 3 d; Proteostat stain
Experimental: Confocal laser scanning microscopy and degradation study with PA1‐3 and CD4+ T cells: The degradation of the peptide assemblies on CD4+ T cells was determined by analyzing fluorescence microscopy images. To this end, 4 µL of the preassembled peptide fibrils EF‐C, PA1 and PA2 (1 mg mL^−1, 1 d in PBS) were mixed with 4 µL of Proteostat (Enzo Life Science, 1 µL stock in 99 µL PBS) and incubated for 15 min. 2 µL of the stained fibrils were added to 198 µL preactivated and nucleus stained (Hoechst 33 342) CD4+ T cells (200 µL, 0.25 × 10^6) resulting in a final 5 µg mL^−1concentration of the peptide. After incubation for 30 min at 37°C the cells were washed with 3x with PBS and incubated in medium (supplemented RPMI containing IL‐15 and 7). Microscopy was conducted on a Zeiss LSM 710 confocal microscope with 20x and 63x objective and laser excitation wavelengths of 405 nm (Hoechst) and 561 nm (Proteostat). The measurements were performed after 30 min and 3 d of incubation at 37°C without any washing step in between. Control experiments to analyze changes of fibril aggregation were conducted analogously without the presence of cells. The evaluation of aggregate size and number was conducted by analyzing Proteostat stained aggregates via the 3D objects counter function of ImageJ 1.53f51 for 5 individual measurements (area 708.5 µm × 708.5 µm) of three individually repeated experiments.

[2] = tested on: GALV-RV transduction of Jurkat cells; test: γ-Retroviral infection assay of Jurkat cells (GFP+ cells by flow cytometry); format: cell-based; conditions: three days after transduction, increasing peptide concentration, performed once
Experimental: γ‐Retroviral Infection Assay of Jurkat cells: 50000 Jurkat cells were seeded in 180 µl supplemented RPMI. The cells were inoculated with 20 µl PNF solution 1:1 (v/v) mixed with virus (1:3.2 dilution) after an incubation time of 10 min. The effect of peptide fibrils on retroviral transduction of Jurkat cells was analyzed 3 days post infection by determining the percentage of GFP + cells by flow cytometry. All assays were conducted as described before.^[ [20] ^]

C16-VVVAAAKKK-NH2 [PA1]
ThT fluorescence (ThT fluorescence): +
transduction efficacy in primary CD4+ T cells (in words) [1]: in the range of commercially available gold‐standard enhancers RetroNectin and Vectofusin‐1
degradation of aggregates by CD4+ T cells (in words) (CD4+ T cells): almost all small aggregates of PA1 are degraded by CD4+ T cells
transduction enhancement of Jurkat cells (GFP+ cells, in words) [2]: strong transduction enhancement similar to EF‐C

CCCCCCCCCCCCCCCC(=O)N[C@@H](Cc1ccccc1)C(=O)N[C@@H](CCC(N)=O)C(=O)N[C@@H](Cc1ccccc1)C(=O)N[C@@H](CCCCN)C(=O)N[C@@H](Cc1ccccc1)C(=O)N[C@@H](CCCCN)C(=O)N[C@@H](CS)C(N)=O [PA2] (Palmitoyl-FQFKFKC-NH2)
ThT fluorescence (ThT fluorescence): +
transduction efficacy in primary CD4+ T cells (in words) [1]: in the range of commercially available gold‐standard enhancers RetroNectin and Vectofusin‐1
degradation of aggregates by CD4+ T cells (in words) (CD4+ T cells): not degraded as efficiently
transduction enhancement of Jurkat cells (GFP+ cells, in words) [2]: strong transduction enhancement similar to EF‐C
